Source: ChEMBL document CHEMBL5046243, “Odookeanynes A and B, Acetylene-Containing Lipopeptides from an Okeania sp. Marine Cyanobacterium” (J Nat Prod, 2022)
Square brackets hold non-standard residues; d marks the D form. Peptide text beside a SMILES is read from it. * marks the point of attachment. Pyrrolidine(2S-propanoyl) = CCC(=O)[C@@H]1CCCN1*; X2 = C#CCCCC[C@H](C)C[C@@H](C)C(=O)*; NMeI = CC[C@H](C)[C@H](NC)C(=O)O; X1 = C#CCCCCCC[C@@H](C)C(=O)*; NMeV = CN[C@H](C(=O)O)C(C)C

Columns and labels:
[1] = Effect on preadipocyte differentiation in mouse 3T3-L1 cells assessed as lipid droplet accumulation at 10 uM in presence of insulin measured after 9 days by Oil Red O staining based assay; format: functional; details: time 9 day
3T3-L1 = assay: Cytotoxicity against mouse 3T3-L1 cells assessed as reduction in cell viability at 30 uM in presence of insulin measured after 3 days by MTT assay; format: toxicity, cell-based; details: 3t3-l1, 72 h, time 3 day

Question: Which results are given for `C#CCCCCCC[C@@H](C)C(=O)N(C)[C@H](C(=O)N(C)[C@H](C(=O)N1CCC[C@H]1C(=O)N(C)[C@H](C(=O)N1CCC[C@H]1C(=O)CC)C(C)C)[C@@H](C)CC)C(C)C` (X1-[NMeV][NMeI]P[NMeV]-{Pyrrolidine(2S-propanoyl)})?
Answer: fold change (FC) [1]: 1.9; Activity (3T3-L1): Non-Toxic

Question: What does the source list for `C#CCCCC[C@H](C)C[C@@H](C)C(=O)N(C)[C@H](C(=O)N(C)[C@H](C(=O)N1CCC[C@H]1C(=O)N(C)[C@H](C(=O)N1CCC[C@H]1C(=O)CC)C(C)C)[C@@H](C)CC)C(C)C` (X2-[NMeV][NMeI]P[NMeV]-{Pyrrolidine(2S-propanoyl)})?
Answer: fold change (FC) [1]: 2.1; Activity (3T3-L1): Non-Toxic
